The experiment addresses Sucrase-isomaltase, intestinal (Rattus norvegicus, UniProt P23739). The experiment can be described thus: Inhibition of rat intestinal sucrase.

Results on two compounds are retold here after ChEMBL document CHEMBL1154357, “Total synthesis of (-)-uniflorine A” (J Nat Prod, 2009).

Broadly, the IC50 is the concentration at which inhibition is half-maximal.

Sequence of Sucrase-isomaltase, intestinal (P23739 1-1013 limits assumed): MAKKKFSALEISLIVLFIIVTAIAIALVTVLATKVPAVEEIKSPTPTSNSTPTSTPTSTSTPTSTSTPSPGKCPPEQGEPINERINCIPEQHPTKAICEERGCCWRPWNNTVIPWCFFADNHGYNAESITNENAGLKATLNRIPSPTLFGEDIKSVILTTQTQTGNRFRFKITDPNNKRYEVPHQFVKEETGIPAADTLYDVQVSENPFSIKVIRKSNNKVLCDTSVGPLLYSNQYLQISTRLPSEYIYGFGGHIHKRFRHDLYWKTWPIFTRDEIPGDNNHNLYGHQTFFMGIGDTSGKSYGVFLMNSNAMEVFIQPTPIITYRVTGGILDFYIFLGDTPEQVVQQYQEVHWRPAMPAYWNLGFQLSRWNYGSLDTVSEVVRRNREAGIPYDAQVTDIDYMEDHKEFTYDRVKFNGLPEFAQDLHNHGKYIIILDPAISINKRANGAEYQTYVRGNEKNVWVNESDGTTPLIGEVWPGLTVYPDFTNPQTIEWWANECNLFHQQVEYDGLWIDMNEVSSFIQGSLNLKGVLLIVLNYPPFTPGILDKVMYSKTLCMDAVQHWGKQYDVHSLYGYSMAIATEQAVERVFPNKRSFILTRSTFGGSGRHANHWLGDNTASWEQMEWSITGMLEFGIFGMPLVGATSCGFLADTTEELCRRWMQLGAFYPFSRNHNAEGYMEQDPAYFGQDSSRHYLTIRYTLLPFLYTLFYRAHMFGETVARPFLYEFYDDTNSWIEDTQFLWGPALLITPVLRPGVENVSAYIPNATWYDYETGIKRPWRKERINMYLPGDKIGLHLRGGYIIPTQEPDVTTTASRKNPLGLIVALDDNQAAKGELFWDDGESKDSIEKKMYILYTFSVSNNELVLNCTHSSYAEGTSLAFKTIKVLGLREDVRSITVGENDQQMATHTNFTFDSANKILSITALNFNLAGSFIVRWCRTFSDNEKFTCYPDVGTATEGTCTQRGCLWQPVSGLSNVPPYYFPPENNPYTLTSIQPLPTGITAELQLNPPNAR
Sequence of Sucrase-isomaltase, intestinal (P23739 1014-1841 limits assumed): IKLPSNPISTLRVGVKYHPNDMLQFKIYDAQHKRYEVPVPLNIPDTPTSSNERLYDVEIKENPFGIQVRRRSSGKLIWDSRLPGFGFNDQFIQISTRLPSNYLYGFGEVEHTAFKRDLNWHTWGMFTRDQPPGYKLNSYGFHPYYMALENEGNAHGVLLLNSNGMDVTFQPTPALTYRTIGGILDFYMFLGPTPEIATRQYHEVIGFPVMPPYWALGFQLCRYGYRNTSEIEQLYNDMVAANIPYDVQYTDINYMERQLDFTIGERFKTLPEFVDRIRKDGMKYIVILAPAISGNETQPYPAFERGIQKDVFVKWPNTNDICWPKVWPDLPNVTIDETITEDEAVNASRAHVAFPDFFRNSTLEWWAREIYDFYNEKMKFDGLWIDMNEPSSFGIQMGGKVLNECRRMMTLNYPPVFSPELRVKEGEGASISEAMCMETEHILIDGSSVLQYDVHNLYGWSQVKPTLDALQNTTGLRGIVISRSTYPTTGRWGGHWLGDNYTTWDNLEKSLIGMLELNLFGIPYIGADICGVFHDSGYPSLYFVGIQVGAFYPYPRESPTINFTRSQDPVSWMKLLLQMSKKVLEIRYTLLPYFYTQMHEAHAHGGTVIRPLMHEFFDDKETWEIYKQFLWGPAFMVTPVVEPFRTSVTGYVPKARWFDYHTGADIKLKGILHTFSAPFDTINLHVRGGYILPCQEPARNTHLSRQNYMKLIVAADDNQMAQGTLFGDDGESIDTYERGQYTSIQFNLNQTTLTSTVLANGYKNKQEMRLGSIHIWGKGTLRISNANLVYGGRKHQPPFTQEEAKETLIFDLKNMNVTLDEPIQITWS

`O[C@H]1[C@H](O)[C@@H](O)CN2C[C@@H](O)[C@@H](O)[C@H]12` registered an IC50 of 3.1 µM.

`O[C@H]1[C@H]2[C@H](O)[C@H](O)CN2[C@H](O)C[C@H]1O` [UNIFLORINE B] gave an IC50 of 1.8 µM.
